This is an account of results in a melting point compilation (Tetko et al.; mined from patent text by program, amines drawn as free bases though some values may be those of a salt).

One may read the melting point as the temperature, or range, at which the solid turns liquid. `O=C(/C=C/c1cccnc1)NCCc1cccc(O)c1`: the melting point was 163 to 164 °C.

For the compound `CS(=O)(=O)C(=C1CN(C(c2ccccc2)c2ccccc2)C1)c1ccc(Cl)c(Cl)c1`, the melting point was found to be 170 °C.

The compound `NC(=O)C(c1ccccc1Cl)N1CCc2sccc2C1` (centres undefined) showed a melting point of 124 to 126 °C.

`CCOC(=O)c1ccc2c(c1)CC(Cc1cncs1)C2` (centres undefined) had a melting point of 47 to 49 °C.

For the compound `CC1NC(=O)N(c2ccc(F)c(Cl)c2)C1=O` (centres undefined), the melting point is 174 to 176 °C.

Turning to `Cc1nnc(CNC(=O)CNC(=O)CN)n1-c1ccc(Cl)cc1C(=O)c1ccccc1Cl`, the melting point fell in the range of 60 to 65 °C.

Take `COC(=O)Nc1cccc(F)c1I`: the melting point lay within 80 to 82 °C.

As to `O=Cc1cnn(Cc2ccccc2)c1-c1ccccc1`, the melting point was 99 to 100 °C.

In turn, `CCCC1=C(c2ccccc2)[C@@H](c2ccccc2)OC1=O` came in with a melting point of 104 to 105 °C.

`CC(SC1COC(c2ccc(C(=O)Nc3ccc(OC(F)(F)F)cc3)cc2)OC1)C(O)(Cn1cncn1)c1ccc(F)cc1F` (centres undefined) gave a melting point of 180 °C.

The compound `COc1ccc(C(=O)Nc2ccc3ccc(Oc4ccccc4F)nc3n2)cc1` yielded a melting point of 208 °C.

Take `CC(C(=O)CO)c1ccc(-c2ccccc2)c(F)c1` (centres undefined): the melting point was 63 to 64.5 °C.

For the compound `CCCOc1c(OC)cc(C(=O)Cl)cc1[N+](=O)[O-]`, the melting point fell in the range of 180 to 184 °C.

The compound `CC(C)(O)c1ccc(CC(=O)Nc2cccnc2Oc2ccc(F)cc2)cc1` registered a melting point of 135 to 137 °C.

Take `NC(=O)c1cccc(OCCCCCn2cnc3c(Cl)ncnc32)c1`: the melting point lay in the range of 132 to 133 °C.

Compound `CCOC(=O)c1cn(-c2cc([N+](=O)[O-])c(F)cc2F)c2cc(F)c(F)cc2c1=O` showed a melting point of 165 to 173 °C.

For `CCC(C)(C)c1cccc(NC=O)c1C`, the melting point fell in the range of 51 to 53 °C.

As for `NS(=O)(=O)c1ccc(-c2cn(-c3nc(-c4ccc(Cl)c(Cl)c4)cc(C(F)(F)F)n3)cn2)cc1`, the melting point came to 334 °C.

With `COc1cc(COc2ncccc2C#N)ccc1OCc1nc(-c2ccccc2)oc1C`, the melting point lay within 117 to 118 °C.

`COc1ccc2c(c1)S(=O)(=O)N(C(C)C)C2=O` returned a melting point of 188 °C.

In turn, `NCCNC(=O)COc1ccc(C2=NNC(=O)CC2)cc1Cl` showed a melting point of 168 to 170 °C.

Compound `NS(=O)(=O)c1cc2c(cc1Cl)C(=O)NC2=O` registered a melting point of 121 to 125 °C.

Compound `CCOC(=O)[C@H](Cc1ccc(-c2c(OC)cc(COS(C)(=O)=O)cc2OC)cc1)NC(=O)c1c(F)cccc1Cl` registered a melting point of 104 to 107 °C.

Consider `Nc1ncc(Cl)c(Cl)c1Cl`, for which the melting point was in the range of 160 to 162 °C.

In turn, `CSc1cc2c(cc1C(F)(F)F)N(C(=O)Nc1cccc(C(=O)NCCN3CCOCC3)c1)CC2` showed a melting point of 198 to 200 °C.

On to `Cc1cc(OC(F)(F)F)cc2sc(N)nc12`, for which the melting point was determined as 162 °C.

The compound `Cn1c(=O)c2cccnc2n(C)c1=O` came in with a melting point of 160 to 161 °C.

In turn, `O=c1c2ccccc2nnn1CCO` came in with a melting point of 114 °C.

`CCc1cn(S(C)(=O)=O)c2c1C(=O)CC(c1ccccc1)C2` (centres undefined) yielded a melting point of 153 to 154 °C.

In turn, `O=[N+]([O-])c1ccc(Oc2ccc(C(F)(F)F)cc2Cl)cc1Oc1ccc(C(F)(F)F)cc1Cl` had a melting point of 111 to 113 °C.

Compound `Cc1nc2c(s1)-c1nc(Nc3ccc(Cl)nc3)ncc1CC2` displayed a melting point of 252 to 253 °C.

On to `CC(=O)Nc1ccc(Cl)c(O)c1`, for which the melting point came out at 212 °C.

For `CS(=O)(=S)OCc1ccc(C(=O)O)cc1` (centres undefined), the melting point stood at 188 °C.

In the case of `COc1ccc(Sc2nn(-c3ccc(OC)cc3)c(=O)c(C#N)c2C)cc1`, the melting point was 188 to 190 °C.

Compound `Cc1cc(Cl)ccc1N=CNN=C(c1ccc(Cl)cc1)c1ccc(OS(C)(=O)=O)cc1` yielded a melting point of 60 to 100 °C.

With `N#CCCN1CCC(C2c3ccccc3C=Cc3ccccc32)CC1`, the melting point was 165 to 168 °C.

Regarding `COC(=O)c1cc(N)c(N2CCCCC2)c(N)c1`, the melting point lay in the range of 133 to 134 °C.

Regarding `CC1(C)Cc2ccccc2C=[N+]1[O-]`, the melting point lay in the range of 70 to 72 °C.

`N=C(Nc1ccc(CCNCc2cccc(F)c2)cc1)c1cccs1` came in with a melting point of 130 to 131 °C.

Compound `CCc1noc(C)c1-c1[nH]c2ccccc2c1C(=O)CCC(=O)N(C)C` had a melting point of 144 to 148 °C.

Consider `NC(=S)c1cccc2c1CCCC2=O`, for which the melting point lay within 200 to 205 °C.

In turn, `Cc1cc(C)c(C2=C(OC(=O)C(C)(C)C)CC(CC3CCOC3)CC2=O)c(C)c1` (centres undefined) came in with a melting point of 108 to 110 °C.

Turning to `COCCNC1CCc2cc(Nc3ncc(Cl)c(Nc4c(OC)ccc5c4CN(S(C)(=O)=O)CC(=O)N5)n3)c(OC)cc2CC1` (centres undefined), the melting point was 110 to 114 °C.

As to `CC(C)(CC(=O)O)CC(=O)NC1(C(=O)NCCCCNc2ncccn2)Cc2ccccc2C1`, the melting point fell in the range of 70 to 83 °C.

As for `O=[N+]([O-])c1ccc(NS(=O)(=O)C(F)(F)F)c(OC2CCCCC2)c1`, the melting point is 93.5 to 95 °C.

Compound `COc1ccc(C)cc1NC(=O)Nc1ccc(C2=CCN(C(=O)Nc3ncccc3CO)CC2)cc1` gave a melting point of 103 to 108 °C.

As to `COc1ccc(N2C[C@@H](COS(C)(=O)=O)OC2=O)cc1`, the melting point is 234 to 236 °C.

`COc1cc2c(c(OC(C)=O)c1)C1CCC3(C)C(O)CCC3C1CC2` (centres undefined) gave a melting point of 107 to 110 °C.

On to `CCOC(=O)c1ccc(C)c(Nc2nccc(-c3cccnc3)n2)c1`, for which the melting point lay in the range of 95 to 96 °C.

`Cn1nc(-c2c(F)cccc2Cl)nc1-c1sc(Cl)c(Cl)c1Cl` yielded a melting point of 129 to 130 °C.

Compound `Cc1nc(-c2ccc(C(F)(F)F)cc2)oc1COc1ccc(OCc2nn[nH]n2)cc1` gave a melting point of 156 °C.

`CC1=C(C)[C@]23OC[C@](C)(CCC2=C(C)C1=O)O3` had a melting point of 99 to 100 °C.

Regarding `O=C(NCc1ccc(F)cc1)N1CCC(Oc2ccc(CCNC[C@H](O)COc3ccc(O)cc3)cc2)CC1`, the melting point is 126 to 128 °C.

Regarding `CC(C)(C)OC(=O)N1CCC(OCc2ccccc2)C1CC(=O)Cn1cnc2cccc(F)c2c1=O` (centres undefined), the melting point was 221 °C.

`COC(=O)C(C)(COS(C)(=O)=O)C(=O)c1ccc(Cl)cc1` (centres undefined) had a melting point of 85 to 86 °C.

On to `CCc1nc2c(N)nc3ccccc3c2n1CCOCCNC(=O)N1CCOCC1`, for which the melting point was 182 to 184 °C.

With `CCCn1nc2c(N)nc3ccccc3c2c1CC(C)(C)OCCS(C)(=O)=O`, the melting point lay in the range of 197 to 200 °C.

With `CCC(=O)[C@@H](NC(=O)OCc1ccccc1)[C@@H](C)CC`, the melting point is 57 to 58 °C.

In the case of `O=c1c2cc(F)ccc2nc(CNCc2ccccc2F)n1-c1ccccc1Cl`, the melting point came to 140 °C.

`Cc1cc(C(F)(C(F)(F)F)C(F)(F)F)ccc1NC1OC(=O)c2cccc(Cl)c21` (centres undefined) gave a melting point of 229 to 231 °C.

In turn, `CCC1CC(=O)N(Cc2cccc(C(=O)NC3CCCC3)c2)N=C1c1ccc(OC)c(OC2CCCC2)c1` (centres undefined) yielded a melting point of 153 °C.

The compound `O=CNc1nc2c(s1)-c1nc(-c3ccccc3)ncc1CC2` registered a melting point of 304 to 306 °C.

Regarding `c1ccc(COc2ncnc3nc[nH]c23)cc1`, the melting point lay within 175 to 177 °C.

Compound `CCOCCN(SC(Cl)(Cl)Cl)C(=N)C(Cl)(Cl)Cl` returned a melting point of 65 to 66 °C.

`CSC(=O)C(=O)c1nsc(NC=O)n1` displayed a melting point of 186 to 187 °C.

Compound `CCOC(=O)c1cnn(-c2c(Cl)cc(C(F)(F)F)cc2Cl)c1` had a melting point of 57 to 59 °C.

Regarding `COc1ccc(CSc2cnc(O)nc2O)cc1`, the melting point was determined as 277 °C.

Take `CC1CCCCC1C(=O)Nc1ccc(-c2cnc(-c3ccc(NC(=O)C4CCCCCC4)cc3)[nH]2)cc1` (centres undefined): the melting point was in the range of 220 to 222 °C.

Regarding `Cc1ccccc1C(=O)Nn1cc(-c2ccccc2)nc1S`, the melting point is 159 to 160 °C.

As to `C=CCCC1(C(F)(F)F)OC(=O)Nc2ccc(Cl)cc21` (racemic), the melting point was 165 to 166 °C.

The compound `CCOC(=O)/C=C/c1cn(-c2ccc(C(F)(F)F)cn2)nc1C(C)C` displayed a melting point of 112 to 113 °C.

Consider `NC(=O)COCC(Cc1ccccc1)NC(=O)[C@@H]1CCCN1C(=O)OCc1ccccc1` (some centres undefined), for which the melting point fell in the range of 137 to 142 °C.

`Cc1cccc(NC(=O)NC2CN(C(=O)C3CCCCC3)c3ccccc3N(c3ccccc3)C2=O)c1` (centres undefined) returned a melting point of 165 to 168 °C.

Consider `COc1ccc(COc2cccc(OC)c2C(=O)/C=C(\Nc2cnc(C#N)cn2)SC)cc1`, for which the melting point lay in the range of 128 to 135 °C.

`CCCC[C@@H](NC(=O)[C@H](Cc1ccc(O)cc1)NC(=O)OC(C)(C)C)C(=O)NCC(=O)Oc1c(Cl)c(Cl)c(Cl)c(Cl)c1Cl` yielded a melting point of 175 to 177 °C.

Turning to `COC(=O)c1nc(Br)c(F)c(NC(C)=O)c1Cl`, the melting point lay in the range of 190 to 192 °C.

On to `CC(=O)COc1ccc(Oc2ccc(F)cc2)cc1`, for which the melting point lay in the range of 56 to 57 °C.

Turning to `CC(=O)OCCc1sc2nc(=NS(=O)(=O)c3ccc(C)cc3)sn2c1-c1ccc2c(c1)CCCC2`, the melting point lay within 126 to 127 °C.

`NC(=O)c1nnn(Cc2ccc(C(=O)c3ccc(Cl)cc3)c(Cl)c2)c1N` came in with a melting point of 203 to 205 °C.

`CCOC(=O)[C@@]1(F)[C@@H]2CC=C(C(=O)OCc3ccccc3)[C@@H]21` registered a melting point of 90 to 91 °C.

Take `CCCCCCSc1c(O)cc(C)oc1=O`: the melting point was 69 to 70 °C.

The compound `CCOc1nn(Cc2cc(OCc3nc(-c4ccccc4)oc3C)no2)cc1CCC(=O)O` registered a melting point of 142 to 143 °C.

In turn, `Oc1ccc(-c2nc3ccccc3s2)cc1` returned a melting point of 108 to 109 °C.

In the case of `CC1(C)C2CCC1(CS(=O)(=O)N1CCC3(C=Cc4ccccc43)CC1)C(O)(CC(=O)O)C2` (centres undefined), the melting point lay within 138 to 140 °C.

The compound `CCCCn1c(N)cc(=O)n(CCCC)c1=O` displayed a melting point of 90.1 to 92.4 °C.

For `O=C(Nc1cccc(S(=O)(=O)NCCO)c1)c1cnn2c(C(F)(F)F)cc(-c3ccc(C(F)(F)F)cc3)nc12`, the melting point is 227 °C.

`CCC(N1CCC(Oc2c(F)c(F)c(F)c(F)c2F)CC1)n1c(=O)[nH]c2ccccc21` (centres undefined) had a melting point of 117 to 120 °C.

`CCNC(=O)c1ccc(N2CCN(Cc3cnc4c(c3)NC(=O)C3CCCCN43)CC2)cc1` (centres undefined) returned a melting point of 233 °C.

In turn, `C[C@@H](n1cc(Cn2cncn2)nn1)[C@](O)(Cn1cncn1)c1ccc(F)cc1F` registered a melting point of 162 to 163 °C.
